Earlier results, collected in patent publication US20070297988A1, “Optical probes for in vivo imaging” (priority 2006, published 2007).

Experiments:
[1] = administered intravenously
[2] = degradation accelerated by light and heat

CC1(C)C(/C=C/C=C/C=C/C=C2\N(CCCCS(=O)(=O)O)c3ccc4ccccc4c3C2(C)C)=[N+](CCCCS(=O)(=O)[O-])c2ccc3ccccc3c21 [ICG, indocyanine green]
plasmatic half-life [1]: 2 to 4 min | protein binding [1]: extensive protein binding | stability in aqueous solution [2]: degraded in aqueous solution
